According to ChEMBL document CHEMBL4028843, “Synthesis of both enantiomers of 1,2,3,4-tetrahydroisoquinoline derivative IPPAM-1 and enantio-dependency of its positive allosteric modulation of prostacyclin receptor” (Bioorg Med Chem Lett, 2017):

Target: Prostacyclin receptor (Homo sapiens) (UniProt P43119)
Assay: Positive allosteric modulation of human prostacyclin receptor expressed in CHOK1 cells assessed as increase in PGI2-induced cAMP production by measuring 2 fold leftward shift in PGI2 concentration response curve measured after 1 hr
Format: functional, cell-based

Chain of Prostacyclin receptor (Homo sapiens) (P43119 whole entry): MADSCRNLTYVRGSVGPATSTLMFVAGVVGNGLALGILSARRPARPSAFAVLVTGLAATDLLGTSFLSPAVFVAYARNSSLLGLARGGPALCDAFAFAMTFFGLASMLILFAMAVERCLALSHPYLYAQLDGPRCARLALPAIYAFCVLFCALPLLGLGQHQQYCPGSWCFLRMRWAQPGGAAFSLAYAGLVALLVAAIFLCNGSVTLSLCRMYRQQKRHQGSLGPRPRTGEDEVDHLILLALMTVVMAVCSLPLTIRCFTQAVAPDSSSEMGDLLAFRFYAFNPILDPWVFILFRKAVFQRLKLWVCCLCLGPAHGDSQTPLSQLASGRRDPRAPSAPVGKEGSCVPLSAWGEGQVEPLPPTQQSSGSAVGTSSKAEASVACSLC

Work on `CC(C)(C)n1nnnc1[C@@H](c1ccccc1)N1CCc2ccccc2C1` yielded an Activity of 3.1 µM.
